Measured values taken from PMC10035947, “Development of novel anilinoquinazoline-based carboxylic acids as non-classical carbonic anhydrase IX and XII inhibitors” (Journal of Enzyme Inhibition and Medicinal Chemistry, 2023).

What was measured:
Assay in all cases: NCI SRB assay
CCRF-CEM = format: cell-based, human; details: for GI%: 10 μM; for Growth Percent: 1.00E-5 Molar
SR = format: cell-based, human; details: for GI%: 10 μM; for Growth Percent: 1.00E-5 Molar
SF-539 = format: cell-based, human; details: for GI%: SF-539, 10 μM; for Growth Percent: SF-539, 1.00E-5 Molar
UACC-257 = format: cell-based, human; details: for GI%: UACC-257, 10 μM; for Growth Percent: UACC-257, 1.00E-5 Molar
OVCAR-3 = format: cell-based, human; details: for GI%: OVCAR-3, 10 μM; for Growth Percent: OVCAR-3, 1.00E-5 Molar
OVCAR-5 = format: cell-based, human; details: for GI%: OVCAR-5, 10 μM; for Growth Percent: OVCAR-5, 1.00E-5 Molar
ACHN = format: cell-based, human; details: for GI%: 10 μM; for Growth Percent: 1.00E-5 Molar
UO-31 = format: cell-based, human; details: for GI%: UO-31, 10 μM; for Growth Percent: UO-31, 1.00E-5 Molar
DU-145 = format: cell-based, human; details: for GI%: DU-145, 10 μM; for Growth Percent: DU-145, 1.00E-5 Molar
MDA-MB-231 = format: cell-based; details: for Growth Percent: MDA-MB-231/ATCC, 1.00E-5 Molar
HS 578 T = format: cell-based, human; details: for GI%: HS 578 T, 10 μM; for Growth Percent: HS 578T, 1.00E-5 Molar
RXF 393 = format: cell-based, human; details: RXF 393, 1.00E-5 Molar

Structure (SMILES)	GI% (CCRF-CEM) [%]	Growth Percent (CCRF-CEM) [%]	GI% (SR) [%]	Growth Percent (SR) [%]	GI% (SF-539)	Growth Percent (SF-539) [%]	GI% (UACC-257)	Growth Percent (UACC-257) [%]	GI% (OVCAR-3)	Growth Percent (OVCAR-3) [%]	GI% (OVCAR-5)	Growth Percent (OVCAR-5) [%]	GI% (ACHN)	Growth Percent (ACHN) [%]	GI% (UO-31) [%]	Growth Percent (UO-31) [%]	GI% (DU-145)	Growth Percent (DU-145) [%]	GI% (HS 578 T) [%]	Growth Percent (HS 578 T) [%]	other results
Cc1cccc(-c2nc(Nc3ccccc3C(=O)O)c3ccccc3n2)c1 [6a, 2-((2-(m-Tolyl)quinazolin-4-yl)amino)benzoic acid]	82	17.83	77	23.03	52%	47.66	51%	49.24	66%	34.15	23%	77.00	63%	36.44	69	31.01	50%	50.47	84	16.61	GI% (MDA-MB-231; MDA-MB-231, 10 μM): 34%; Growth Percent (MDA-MB-231): 66.08%
Cc1ccc(-c2nc(Nc3cccc(C(=O)O)c3)c3ccccc3n2)cc1 [7b, 3-((2-(p-Tolyl)quinazolin-4-yl)amino)benzoic acid]	21	78.66	41	58.68	27%	73.18	– (Only GI% higher than 20% are shown)	111.51	– (Only GI% higher than 20% are shown)	85.56	– (Only GI% higher than 20% are shown)	107.97	24%	76.34	51	48.97	– (Only GI% higher than 20% are shown)	96.55	34	65.83	Growth Percent (MDA-MB-231): 95.55%
Cc1ccc(-c2nc(Nc3ccc(C(=O)O)cc3)c3ccccc3n2)cc1 [8b, 4-((2-(p-Tolyl)quinazolin-4-yl)amino)benzoic acid]	28	71.96	38	61.50	21%	78.63	– (Only GI% higher than 20% are shown)	107.52	20%	79.51	– (Only GI% higher than 20% are shown)	95.98	24%	75.90	58	41.73	– (Only GI% higher than 20% are shown)	81.93	32	67.76	Growth Percent (MDA-MB-231): 87.83%
Cc1cccc(-c2nc(Nc3ccc(C(=O)O)cc3)c3ccccc3n2)c1 [8a, 4-((2-(m-Tolyl)quinazolin-4-yl)amino)benzoic acid]	25	74.58	32	67.75	– (Only GI% higher than 20% are shown)	91.50	– (Only GI% higher than 20% are shown)	101.78	– (Only GI% higher than 20% are shown)	82.69	– (Only GI% higher than 20% are shown)	133.93	– (Only GI% higher than 20% are shown)	85.41	54	45.85	– (Only GI% higher than 20% are shown)	87.83	48	51.51	Growth Percent (MDA-MB-231): 93.31%
COc1ccc(-c2nc(Nc3ccccc3C(=O)O)c3ccccc3n2)cc1 [6c, 2-((2–(4-Methoxyphenyl)quinazolin-4-yl)amino)benzoic acid]	58	42.05			37%	63.06	28%	72.03	54%	43.93	27%	73.07	54%	46.21			43%	56.86	72	28.05	Growth Percent (RXF 393): 68.31%
